Results published in the NIST ThermoML archive (doi:10.1016/j.jct.2006.09.006).
± gives the expanded uncertainty stated by the source.

Assays:
[1] = 298.15 K; 101.33 kPa; Liquid
[2] = xn = mol fraction of the nth substance listed; conditions: 298.15 K, 101.3 kPa, Liquid

In the case of OCC(F)(F)F [2,2,2-trifluoroethanol], the mass density [1] is reported as 1382.4 ± 1.5 kg/m3.

With OCC(F)(F)F [2,2,2-trifluoroethanol] + CC(C)OC(C)C the mass density ([2]; x2 = 0.0511) was 1320 ± 1 kg/m3, the mass density ([2]; x2 = 0.1069) was 1258.5 ± 0.9 kg/m3 and the mass density ([2]; x2 = 0.1922) was 1175.7 ± 0.7 kg/m3. For the same compound, the mass density ([2]; x2 = 0.2483) was 1127.3 ± 0.6 kg/m3, the mass density ([2]; x2 = 0.2968) was 1088.9 ± 0.5 kg/m3 and the mass density ([2]; x2 = 0.4021) was 1013.8 ± 0.4 kg/m3. It also gave a mass density ([2]; x2 = 0.4927) of 957.1 ± 0.5 kg/m3, a mass density ([2]; x2 = 0.6059) of 894 ± 0.5 kg/m3 and a mass density ([2]; x2 = 0.6997) of 846.9 ± 0.5 kg/m3. It also gave a mass density ([2]; x2 = 0.8024) of 799.8 ± 0.6 kg/m3 and a mass density ([2]; x2 = 0.9113) of 754.2 ± 0.6 kg/m3.

With CC(C)OC(C)C [diisopropyl ether] + CCO the mass density ([2]; x1 = 0.1072) was 774.5 ± 0.5 kg/m3, the mass density ([2]; x1 = 0.2007) was 766.1 ± 0.5 kg/m3 and the mass density ([2]; x1 = 0.3086) was 757.6 ± 0.5 kg/m3. The mass density ([2]; x1 = 0.403) was 751 ± 0.5 kg/m3, the mass density ([2]; x1 = 0.4811) was 746 ± 0.6 kg/m3 and the mass density ([2]; x1 = 0.6142) was 738.3 ± 0.6 kg/m3. It also gave a mass density ([2]; x1 = 0.6993) of 733.8 ± 0.6 kg/m3, a mass density ([2]; x1 = 0.7432) of 731.7 ± 0.6 kg/m3 and a mass density ([2]; x1 = 0.7863) of 729.6 ± 0.6 kg/m3. For the same compound, the mass density ([2]; x1 = 0.8965) was 724.4 ± 0.6 kg/m3 and the mass density ([2]; x1 = 0.9129) was 723.6 ± 0.6 kg/m3.

Compound FC(F)(F)c1ccccc1 [(trifluoromethyl)benzene] has a mass density [1] of 1182.18 ± 0.48 kg/m3.

FC(F)(F)c1ccccc1 [(trifluoromethyl)benzene] + CCO showed a mass density ([2]; x1 = 0.1051) of 864 ± 0.4 kg/m3, a mass density ([2]; x1 = 0.1999) of 921.7 ± 0.3 kg/m3 and a mass density ([2]; x1 = 0.2454) of 945.8 ± 0.3 kg/m3. The mass density ([2]; x1 = 0.3059) was 975.2 ± 0.2 kg/m3, the mass density ([2]; x1 = 0.4057) was 1017.5 ± 0.2 kg/m3 and the mass density ([2]; x1 = 0.5022) was 1052.8 ± 0.3 kg/m3. For the same compound, the mass density ([2]; x1 = 0.5855) was 1079.7 ± 0.3 kg/m3, the mass density ([2]; x1 = 0.7052) was 1113.7 ± 0.4 kg/m3 and the mass density ([2]; x1 = 0.7886) was 1134.9 ± 0.4 kg/m3. It also gave a mass density ([2]; x1 = 0.9032) of 1161.5 ± 0.4 kg/m3.

In the case of CC(C)OC(C)C [diisopropyl ether], the mass density [1] is reported as 719.17 ± 0.96 kg/m3.

With CCO [ethanol] the mass density [1] was 785.6 ± 0.24 kg/m3.
